The structures appear in SMILES notation. Where a SMILES comes first, the peptide text is derived from it.

Five compounds from patent publication US20130130985A1 (priority 2010, published 2013) can be followed below.

Data set [1] is described as follows: Stability assay in rat plasma and human serum (metabolic half life). To be noted: Half life (h), 37° C., matrix of the values not specified.
Description: 300 μL rat plasma and human serum (Sigma Aldrich) was incubated at 37° C. for 30 min. 50 mL of peptide sample (0.3 mM) in 0.1 M phosphate buffer, pH 7.2 was added to the rat plasma and human serum. The vortexed mixture was incubated at 37° C.
For data set [2] the following is noted: phosphate buffer pH 7.4, 37° C., over a period of 48 h.
Data set [3] has as its target T1, hV1aR (Homo sapiens, UniProt P37288).
T1 construct: expressed in transfected cells; host or cells: COS-1
Put plainly: Functional IP-One HTRF assay. It counts as cell-based. As for the experimental part: (§1) Cells were lysed by the addition of the HTRF reagents (the europium cryptate-labeled anti-IP1 antibody and the d2-labeled IP1 analogue) diluted in lysis buffer. The assays were incubated for 1 h at room temperature.
In general terms: In TR-FRET formats the signal depends on donor and acceptor labels being close together.

The target of data set [4] is T1, hV1aR. Description: Functional FLIPR assay (calcium signalling). Type of data set: cell-based. The method, then:
(§2) To allow for complete de-esterification of the dye, cells were washed 5-10 min with PSS before transfer to a FLIPR^TETRA (Molecular Devices, Sunnyvale, Calif.) fluorescent plate reader. […] The baseline fluorescence was set to a minimum of 1000 arbitrary fluorescence units by adjusting camera gain and excitation intensity. Compounds were added as 3× concentrated stock solutions in PSS, with 10 baseline fluorescence readings prior to compound addition followed by fluorescence reading every second for 180 s.
(§3) As previously described, raw fluorescence data was converted to ΔF/F values by subtracting baseline fluorescence readings from subsequent time points and dividing by baseline fluorescence values. […] A 4-parameter Hill equation with Hill coefficient=1 was fitted to the data using GraphPad Prism (Version 4.00, San Diego, Calif.).

Data set [5] deals with T2, hOTR (Homo sapiens, UniProt P30559).
T2 construct: expressed in transfected cells; host or cells: COS-1
T2 sequence (P30559 1-389): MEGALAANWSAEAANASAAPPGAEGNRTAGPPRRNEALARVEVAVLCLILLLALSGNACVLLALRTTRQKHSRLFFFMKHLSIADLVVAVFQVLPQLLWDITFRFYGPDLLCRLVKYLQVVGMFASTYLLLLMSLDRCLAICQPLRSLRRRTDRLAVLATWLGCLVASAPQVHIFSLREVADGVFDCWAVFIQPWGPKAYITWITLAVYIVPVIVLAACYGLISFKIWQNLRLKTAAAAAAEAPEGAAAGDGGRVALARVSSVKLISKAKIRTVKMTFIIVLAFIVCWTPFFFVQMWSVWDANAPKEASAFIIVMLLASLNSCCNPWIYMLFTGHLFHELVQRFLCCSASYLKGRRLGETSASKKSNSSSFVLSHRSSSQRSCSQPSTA
Description: Functional IP-One HTRF assay. Type of data set: cell-based. To be noted: for Emax: read-out: hOTR Emax. As for the experimental part:
as §1

For data set [6], the target named is T3, hV1bR (Homo sapiens, UniProt P47901).
T3 construct: expressed in transfected cells; host or cells: COS-1
T3 sequence (P47901 1-424): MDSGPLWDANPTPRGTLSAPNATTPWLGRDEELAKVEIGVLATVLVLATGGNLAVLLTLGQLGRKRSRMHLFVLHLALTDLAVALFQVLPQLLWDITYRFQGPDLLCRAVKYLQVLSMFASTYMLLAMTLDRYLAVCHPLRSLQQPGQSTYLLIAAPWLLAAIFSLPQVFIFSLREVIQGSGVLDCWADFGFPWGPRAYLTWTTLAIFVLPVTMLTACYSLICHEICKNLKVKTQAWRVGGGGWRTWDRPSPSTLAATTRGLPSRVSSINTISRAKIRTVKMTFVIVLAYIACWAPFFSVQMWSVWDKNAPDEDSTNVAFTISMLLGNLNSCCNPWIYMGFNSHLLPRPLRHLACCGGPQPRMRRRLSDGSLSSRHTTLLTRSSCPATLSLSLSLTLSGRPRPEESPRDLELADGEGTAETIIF
Description: Functional IP-One HTRF assay. It counts as cell-based. The method, then:
as §1

Data set [7] has as its target T2, hOTR. Put plainly: Radioligand binding assay, displacement of 3H-OT, COS-1 membranes. In general terms: In a radioligand displacement assay an active substance lowers the binding of a labelled ligand.
In data set [8] the target is T3, hV1bR. Put plainly: Functional FLIPR assay (calcium signalling). It counts as cell-based. As for the experimental part: as §2, §3
Data set [9] addresses T2, hOTR. Description: Functional FLIPR assay (calcium signalling). Type of data set: cell-based. The method, then:
as §2, §3

Data set [10] addresses T3, hV1bR. Description: Radioligand binding assay, displacement of 3H-AVP, COS-1 membranes.

T1 sequence (P37288 whole entry): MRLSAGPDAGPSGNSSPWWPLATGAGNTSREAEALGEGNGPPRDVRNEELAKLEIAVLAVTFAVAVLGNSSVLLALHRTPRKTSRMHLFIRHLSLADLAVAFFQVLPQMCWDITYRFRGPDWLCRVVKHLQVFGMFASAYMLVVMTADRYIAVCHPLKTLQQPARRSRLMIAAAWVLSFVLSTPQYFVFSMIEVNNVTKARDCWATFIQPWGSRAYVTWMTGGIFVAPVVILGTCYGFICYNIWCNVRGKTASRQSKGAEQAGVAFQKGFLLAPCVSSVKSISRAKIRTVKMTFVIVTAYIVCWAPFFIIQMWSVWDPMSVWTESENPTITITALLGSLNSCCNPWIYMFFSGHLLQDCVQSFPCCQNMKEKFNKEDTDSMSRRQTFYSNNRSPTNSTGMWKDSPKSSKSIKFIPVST

The term half-life denotes the time needed for the level to fall by half in the phase considered. A low value points to fast loss. `NC(=O)CC[C@@H]1NC(=O)[C@H](Cc2ccccc2)NC(=O)[C@H](Cc2ccc(O)cc2)NC(=O)[C@@H](N)CSSC[C@@H](C(=O)N2CCC[C@H]2C(=O)N[C@@H](CCCN=C(N)N)C(=O)NCC(N)=O)NC(=O)[C@H](CC(N)=O)NC1=O` [AVP, arginine-vasopressin]: in data set [1], the half-life at 0.043 mM was 2 h. In data set [2], the “degradation in phosphate buffer” value was “no degradation was observed”.
By Emax is commonly meant the maximal effect, on the per cent scale that the assay sets. For the compound `CC[C@H](C)[C@@H]1NC(=O)[C@H](Cc2ccc(O)cc2)NC(=O)[C@@H](N)CSSC[C@@H](C(=O)N2CCC[C@H]2C(=O)N[C@@H](CC(C)C)C(=O)NCC(N)=O)NC(=O)[C@H](CC(N)=O)NC(=O)[C@H](CCC(N)=O)NC1=O` [OT, Oxytocin], the Emax on hV1aR [3] came out at 79 ± 9%; on hV1aR [4], 71%. For the same compound, the “degradation in phosphate buffer” value in [2] was “no degradation was observed”.
With `CC[C@H](C)[C@@H]1NC(=O)[C@H](Cc2ccc(O)cc2)NC(=O)[C@@H](N)CCSC[C@@H](C(=O)N2CCC[C@H]2C(=O)N[C@@H](CC(C)C)C(=O)NCC(N)=O)NC(=O)[C@H](CC(N)=O)NC(=O)[C@H](CCC(N)=O)NC1=O` [[CH2—S]-OT] (HELM PEPTIDE1{[N[C@@H](CC[*:3])C(=O)[*:2]].Y.I.Q.N.C.P.L.G.[am]}$PEPTIDE1,PEPTIDE1,1:R3-6:R3$$$V2.0; N-terminus and C-terminus assumed), the Emax on hOTR [5] amounted to 64 ± 14%; at hV1aR [3], 75 ± 8%.
Turning to `CC[C@H](C)[C@@H]1NC(=O)[C@H](Cc2ccc(O)cc2)NC(=O)[C@@H](N)CSSC[C@@H](C(=O)N2CCC[C@H]2C(=O)N[C@@H](CC(C)C)C(=O)NCC(=O)O)NC(=O)[C@H](CC(N)=O)NC(=O)[C@H](CCC(N)=O)NC1=O` [[S—S]-OT-OH, OT-OH], the Emax was found to be 96 ± 6% at hV1bR [6], 82 ± 13% at hOTR [5] and 77 ± 24% at hV1aR [3]. Moreover, on hV1bR [6] (compared to OT), the “drop in functional efficacy at the hV1bR” value was 10-30 fold. Moreover, on hOTR [5] (compared to OT), the “drop in functional efficacy at the hOTR” value is on record as 10-30 fold.
As usually defined, the EC50 is the concentration that produces a half-maximal response. As usually defined, the IC50 is the concentration needed to halve the response being measured. As for `CC[C@H](C)[C@@H]1NC(=O)[C@H](Cc2ccc(O)cc2)NC(=O)CCSSC[C@@H](C(=O)N2CCC[C@H]2C(=O)N[C@@H](CC(C)C)C(=O)NCC(N)=O)NC(=O)[C@H](CC(N)=O)NC(=O)[C@H](CCC(N)=O)NC1=O` [dOT], the Emax was 67 ± 10% on hV1bR [6]; 100% on hOTR [5]; 100% on hV1bR [8]; 89% at hOTR [9]; 54% at hV1aR [4]. Further, the EC50 on hV1bR [6] (IP-One assay, COS-1) came out at 0.47 ± 0.422 µM; on hOTR [5] (IP-One assay, COS-1) it was 0.00071 µM; at hV1bR [8] (FLIPR assay, COS-1) it was 0.0159 ± 0.00596 µM; at hOTR [9] (FLIPR assay, COS-1), 0.00039 µM; at hV1aR [4] (FLIPR assay, COS-1), 0.0461 µM. Also, the IC50 at hOTR [7] was 0.0017 µM; at hV1bR [10] it was 0.351 ± 0.125 µM.
